Assay results: PMC10269895 (Microbiology Spectrum, 2023)
Like-named read-outs stand apart in the source and are kept apart here.

Tests used:
[1] = Chemical stability in the presence of GSH; type: physicochemical; conditions: incubation for 168 h
Protocol: Based on a stock solution of 0.2 mg GE81112A in 1,548 μL methanol, three different samples were prepared in triplets (test mixture: 100 μL stock solution, 2 μL DMSO, and 1 μL DMSO containing 1.5 GSH equivalents; reference sample A: 200 μL stock solution; reference sample B: 200 μL stock solution and 2 μL DMSO). All samples were measured at three different time points (0 h, 24 h, and 168 h) on a MaXis II system (Bruker).

[2] = system: PDE3A, acetylcholinesterase, MAO-A, Na+/K+-ATPase; conditions: 0.01 mM
Protocol: The targets were human recombinant proteins unless a different species is stated. All tests were conducted at a peptide concentration of 0.01 mM according to CEREP procedures.
Pharmacological off-target profiling was conducted by CEREP (Celle-Le’vescault, France) to investigate inhibitory effects against the targets specified in Fig. 3 and 4. […] We selected 19 G-protein-coupled receptors (acetylcholine, adenosine, androgens, cannabinoids, dopamine, histamine, opioids, and serotonin), eight ion channels (Gly, nicotinic acetylcholine receptor [nAChR], phencyclidine [PCP], Cav1.2, Kv, SKCa, and γ-aminobutyric acid-gated chloride channels [GABACl]), two transporters (dopamine transporter [DAT] and noradrenaline transporter [NET]), and four enzymes (phosphodiesterase [PDE], acetylcholinesterase, monoamine oxidase (MAO), and Na^+/K^+-ATPase) for testing.

hERG = molecular target: T1, hERG (Homo sapiens, UniProt Q12809); assay: Off-target ion channel profiling (automated patch clamp); type: cell-based; conditions: concentrations up to 30 μM
T1 construct: host or cells: CHO
Protocol: (§1) The effect of GE81112A on the hERG and other ion channels (hNaV1.5, hNaV1.2, hCaV3.1, or hKV4.3) was investigated using an automated patch-clamp method, as described by Houtmann et al. ([17]). GE81112A was diluted in a 5-fold 1:3 dilution series with a final concentration range of 30 to 0.12 μM in extracellular medium (150 mM NaCl, 4 mM KCl, 2 mM CaCl2, 1 mM MgCl2, 10 mM HEPES, 10 mM glucose, 0.06% Pluronic F-68, 0.3% residual DMSO). The hERG channel was constitutively expressed in Chinese hamster ovary (CHO) cells (CHO hERG Duo; B’SYS GmbH, Witterswil, Switzerland). CHO cells were grown at a concentration of 8 × 10^6 CHO cells/mL in QPlates (Sophion/Biolin Scientific, Ballerup, Denmark) in Ex-Cell animal component-free CHO medium (Sigma-Aldrich) supplemented with 25 mM HEPES, 100 U/mL penicillin-streptomycin, and 0.004% soybean trypsin inhibitor. To each well, we added extracellular medium containing the desired concentration of GE81112A. The peptide-hERG interaction was quantified by recording the tail current following repolarization of the hERG channels using a QPatch HTX station (Sophion/Biolin Scientific). The IC50 values were determined using the values from three replicates of the GE81112A concentration series with respect to the terfenadine citrate positive control and extracellular medium (blank).

hCaV3.1 = hCaV3.1 (Homo sapiens, UniProt O43497); assay: as above; type: cell-based; conditions: concentrations up to 30 μM
Protocol: as §1

hNaV1.5 = hNaV1.5 (Homo sapiens, UniProt Q14524); assay: as above; type: cell-based; conditions: concentrations up to 30 μM
Protocol: as §1

hKV4.3 = hKV4.3 (Homo sapiens, UniProt Q9UK17); assay: as above; type: cell-based; conditions: concentrations up to 30 μM
Protocol: as §1

hNaV1.2 = hNaV1.2 (Homo sapiens, UniProt Q99250); assay: as above; type: cell-based; conditions: concentrations up to 30 μM
Protocol: as §1

E. coli DSM 46345 = system: E. coli DSM 46345
Protocol: (§2) MICs were determined by adapting the protocol from CLSI guidelines (Table 1; [15]). Briefly, from an overnight preculture, 49.2 μL of an inoculum of 5 × 10^5 CFU/mL in MH broth or DMEM was dispensed into 384-well plates, and 0.8 μL of compounds solubilized in dimethyl sulfoxide (DMSO) and serially diluted was added to the bacterial cultures. […] MICs were determined by measurement of the optical density at 600 nm (OD600). The experiments were performed in duplicate. Commercially available strains were obtained from the American Type Culture Collection (ATCC), the German Collection of Microorganisms and Cell Cultures (DSMZ), and the Biological Resource Center of Institut Pasteur (CRBIP).

[3] = system: K. pneumoniae ATCC BAA-2342; conditions: KPC strain
Protocol: as §2

E. coli ATCC BAA-2471 = conditions: NDM-1 strain
Protocol: as §2

[4] = system: K. pneumoniae ATCC BAA-2470; conditions: NDM-1 strain
Protocol: as §2

E. cloacae ATCC BAA-2468 = conditions: NDM-1 strain
Protocol: as §2

P. stuartii ATCC 29851 = system: P. stuartii ATCC 29851
Protocol: as §2

E. cloacae CIP 105879 = system: E. cloacae CIP 105879
Protocol: as §2

P. mirabilis DSM4479 = system: P. mirabilis DSM4479
Protocol: as §2

E. coli ATCC BAA-2469 = conditions: NDM-1 strain
Protocol: as §2

C. freundii ATCC 8090 = system: C. freundii ATCC 8090
Protocol: as §2

E. coli MG1655 = system: E. coli MG1655
Protocol: as §2

[5] = Metabolic stability in liver microsomes; type: in vitro ADME; conditions: 5 μM
Protocol: Microsomal preparations from human and animal species were used at a protein concentration of 1 mg/mL, and the cofactor NADPH was added to a final concentration of 1 mM to assay for CYP and flavin-containing monooxygenase (FMO) lability. GE81112A at 5 μM was incubated for 20 min at 37°C. The enzymatic reaction was initiated by a rapid temperature increase in a water bath at 37°C. It was stopped by a rapid temperature decrease in an ice bath at 0°C and subsequent addition of 5 volumes of precooled acetonitrile (500 μL). Loss of parent GE81112A concentration, as a percentage, was determined using LC-MS/MS measurements, where 100% was the measurement at time zero.

hNaV1.5, sequence (Q14524 whole entry): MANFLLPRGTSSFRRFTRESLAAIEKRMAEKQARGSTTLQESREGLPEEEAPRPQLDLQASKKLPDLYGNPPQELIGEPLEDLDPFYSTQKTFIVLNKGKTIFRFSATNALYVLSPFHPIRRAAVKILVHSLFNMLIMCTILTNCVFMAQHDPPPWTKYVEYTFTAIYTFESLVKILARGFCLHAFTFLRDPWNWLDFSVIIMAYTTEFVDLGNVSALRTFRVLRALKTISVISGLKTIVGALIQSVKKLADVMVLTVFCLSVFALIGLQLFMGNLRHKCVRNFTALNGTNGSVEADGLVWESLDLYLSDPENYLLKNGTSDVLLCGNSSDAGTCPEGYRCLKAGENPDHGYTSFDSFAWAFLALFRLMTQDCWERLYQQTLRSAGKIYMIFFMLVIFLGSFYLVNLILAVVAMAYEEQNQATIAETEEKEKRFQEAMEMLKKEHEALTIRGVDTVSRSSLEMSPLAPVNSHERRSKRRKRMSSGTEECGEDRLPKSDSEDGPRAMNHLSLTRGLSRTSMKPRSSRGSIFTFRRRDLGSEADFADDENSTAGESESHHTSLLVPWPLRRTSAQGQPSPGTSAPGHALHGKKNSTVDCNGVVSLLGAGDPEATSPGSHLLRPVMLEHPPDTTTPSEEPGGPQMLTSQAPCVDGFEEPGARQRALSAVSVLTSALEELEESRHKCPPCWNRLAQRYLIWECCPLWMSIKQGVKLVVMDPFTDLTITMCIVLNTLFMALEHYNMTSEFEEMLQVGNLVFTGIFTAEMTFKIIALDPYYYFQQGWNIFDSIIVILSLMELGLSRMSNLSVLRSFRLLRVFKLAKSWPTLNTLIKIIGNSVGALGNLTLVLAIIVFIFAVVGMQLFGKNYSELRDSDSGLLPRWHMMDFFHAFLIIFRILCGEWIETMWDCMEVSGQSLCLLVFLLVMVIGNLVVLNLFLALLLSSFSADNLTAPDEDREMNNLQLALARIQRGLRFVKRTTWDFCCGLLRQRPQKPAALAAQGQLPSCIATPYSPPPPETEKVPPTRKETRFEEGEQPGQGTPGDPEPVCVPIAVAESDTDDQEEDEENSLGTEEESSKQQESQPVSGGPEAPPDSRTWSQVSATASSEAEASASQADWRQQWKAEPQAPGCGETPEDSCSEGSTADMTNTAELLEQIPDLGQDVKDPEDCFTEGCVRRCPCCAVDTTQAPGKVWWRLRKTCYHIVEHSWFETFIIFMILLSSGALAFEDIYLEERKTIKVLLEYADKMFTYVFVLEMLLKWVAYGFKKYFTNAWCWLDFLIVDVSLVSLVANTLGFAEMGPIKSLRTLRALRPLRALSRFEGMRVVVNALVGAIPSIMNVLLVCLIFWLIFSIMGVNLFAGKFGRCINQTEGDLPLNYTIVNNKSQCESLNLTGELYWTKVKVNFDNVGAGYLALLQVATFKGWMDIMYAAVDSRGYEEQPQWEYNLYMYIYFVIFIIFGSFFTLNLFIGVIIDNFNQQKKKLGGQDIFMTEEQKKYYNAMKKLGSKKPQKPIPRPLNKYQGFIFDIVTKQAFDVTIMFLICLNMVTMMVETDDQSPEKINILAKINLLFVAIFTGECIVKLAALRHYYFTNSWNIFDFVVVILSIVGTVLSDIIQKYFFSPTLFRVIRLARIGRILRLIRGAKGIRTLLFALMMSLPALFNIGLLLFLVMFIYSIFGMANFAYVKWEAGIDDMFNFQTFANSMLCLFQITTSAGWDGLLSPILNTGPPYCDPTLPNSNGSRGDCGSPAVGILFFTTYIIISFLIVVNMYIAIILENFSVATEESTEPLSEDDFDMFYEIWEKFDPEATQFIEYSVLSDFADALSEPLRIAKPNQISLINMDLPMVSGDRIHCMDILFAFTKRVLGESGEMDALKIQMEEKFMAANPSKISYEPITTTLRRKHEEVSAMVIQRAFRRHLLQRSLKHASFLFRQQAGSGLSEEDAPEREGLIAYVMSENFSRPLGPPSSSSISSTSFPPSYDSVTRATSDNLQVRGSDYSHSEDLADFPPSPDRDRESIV
hCaV3.1, sequence (O43497 whole entry): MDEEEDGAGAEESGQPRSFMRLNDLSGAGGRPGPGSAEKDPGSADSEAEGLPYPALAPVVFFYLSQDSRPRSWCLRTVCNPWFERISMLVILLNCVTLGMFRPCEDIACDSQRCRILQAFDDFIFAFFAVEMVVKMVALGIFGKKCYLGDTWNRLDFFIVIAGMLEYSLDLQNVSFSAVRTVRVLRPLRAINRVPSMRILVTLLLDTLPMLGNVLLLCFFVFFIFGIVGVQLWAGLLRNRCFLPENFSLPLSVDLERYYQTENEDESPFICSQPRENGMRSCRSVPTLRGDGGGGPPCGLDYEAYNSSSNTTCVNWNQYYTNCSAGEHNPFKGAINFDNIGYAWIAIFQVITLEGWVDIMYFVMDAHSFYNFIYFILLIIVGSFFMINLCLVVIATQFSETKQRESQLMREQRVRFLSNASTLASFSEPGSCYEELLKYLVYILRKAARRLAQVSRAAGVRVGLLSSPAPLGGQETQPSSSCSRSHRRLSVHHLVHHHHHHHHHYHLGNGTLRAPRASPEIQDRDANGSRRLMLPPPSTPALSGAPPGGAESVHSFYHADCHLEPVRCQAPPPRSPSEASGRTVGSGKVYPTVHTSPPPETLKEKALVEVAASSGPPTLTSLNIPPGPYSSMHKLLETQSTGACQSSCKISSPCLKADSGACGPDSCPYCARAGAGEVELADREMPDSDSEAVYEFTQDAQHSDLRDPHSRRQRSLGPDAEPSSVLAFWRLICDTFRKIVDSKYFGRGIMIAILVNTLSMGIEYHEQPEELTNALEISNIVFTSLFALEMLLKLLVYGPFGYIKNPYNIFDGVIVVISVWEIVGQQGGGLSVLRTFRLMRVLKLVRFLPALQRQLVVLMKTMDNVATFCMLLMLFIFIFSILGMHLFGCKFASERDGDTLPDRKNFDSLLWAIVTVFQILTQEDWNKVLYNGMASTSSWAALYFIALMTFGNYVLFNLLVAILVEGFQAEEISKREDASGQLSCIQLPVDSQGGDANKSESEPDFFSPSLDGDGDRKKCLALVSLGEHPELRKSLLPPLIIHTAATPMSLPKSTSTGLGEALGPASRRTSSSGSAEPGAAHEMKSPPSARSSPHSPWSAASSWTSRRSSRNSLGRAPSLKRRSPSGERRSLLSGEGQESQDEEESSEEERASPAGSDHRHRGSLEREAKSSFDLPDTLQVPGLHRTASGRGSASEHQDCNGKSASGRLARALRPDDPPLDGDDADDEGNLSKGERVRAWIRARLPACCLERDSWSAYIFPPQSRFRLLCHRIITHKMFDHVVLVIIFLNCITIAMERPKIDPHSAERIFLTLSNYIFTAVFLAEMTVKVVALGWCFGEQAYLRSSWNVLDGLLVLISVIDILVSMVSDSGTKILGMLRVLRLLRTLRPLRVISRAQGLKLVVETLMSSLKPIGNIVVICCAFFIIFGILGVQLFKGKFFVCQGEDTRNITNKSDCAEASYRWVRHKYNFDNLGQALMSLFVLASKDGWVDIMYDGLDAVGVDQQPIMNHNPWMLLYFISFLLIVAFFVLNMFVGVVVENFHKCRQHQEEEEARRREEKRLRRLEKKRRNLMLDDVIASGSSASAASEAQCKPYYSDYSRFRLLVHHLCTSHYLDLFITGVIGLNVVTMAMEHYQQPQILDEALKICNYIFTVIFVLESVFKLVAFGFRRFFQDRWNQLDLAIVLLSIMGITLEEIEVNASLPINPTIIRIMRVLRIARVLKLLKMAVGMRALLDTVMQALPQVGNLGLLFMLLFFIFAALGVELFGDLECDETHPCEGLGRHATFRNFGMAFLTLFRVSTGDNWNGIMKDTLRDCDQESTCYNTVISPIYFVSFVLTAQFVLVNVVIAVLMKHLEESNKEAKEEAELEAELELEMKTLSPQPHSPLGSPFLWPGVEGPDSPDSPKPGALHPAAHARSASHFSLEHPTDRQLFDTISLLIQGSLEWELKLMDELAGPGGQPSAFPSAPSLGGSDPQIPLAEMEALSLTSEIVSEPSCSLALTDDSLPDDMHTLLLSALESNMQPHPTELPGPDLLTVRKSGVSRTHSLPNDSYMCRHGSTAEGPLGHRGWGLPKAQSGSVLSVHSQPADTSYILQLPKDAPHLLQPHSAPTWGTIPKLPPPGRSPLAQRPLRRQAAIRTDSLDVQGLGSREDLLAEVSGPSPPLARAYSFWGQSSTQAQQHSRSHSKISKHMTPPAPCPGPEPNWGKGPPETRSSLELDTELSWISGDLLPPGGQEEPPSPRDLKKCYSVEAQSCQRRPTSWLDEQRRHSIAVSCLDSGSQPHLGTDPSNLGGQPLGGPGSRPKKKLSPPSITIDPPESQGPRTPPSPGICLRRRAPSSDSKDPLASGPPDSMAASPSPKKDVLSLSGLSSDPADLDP
hKV4.3, sequence (Q9UK17 whole entry): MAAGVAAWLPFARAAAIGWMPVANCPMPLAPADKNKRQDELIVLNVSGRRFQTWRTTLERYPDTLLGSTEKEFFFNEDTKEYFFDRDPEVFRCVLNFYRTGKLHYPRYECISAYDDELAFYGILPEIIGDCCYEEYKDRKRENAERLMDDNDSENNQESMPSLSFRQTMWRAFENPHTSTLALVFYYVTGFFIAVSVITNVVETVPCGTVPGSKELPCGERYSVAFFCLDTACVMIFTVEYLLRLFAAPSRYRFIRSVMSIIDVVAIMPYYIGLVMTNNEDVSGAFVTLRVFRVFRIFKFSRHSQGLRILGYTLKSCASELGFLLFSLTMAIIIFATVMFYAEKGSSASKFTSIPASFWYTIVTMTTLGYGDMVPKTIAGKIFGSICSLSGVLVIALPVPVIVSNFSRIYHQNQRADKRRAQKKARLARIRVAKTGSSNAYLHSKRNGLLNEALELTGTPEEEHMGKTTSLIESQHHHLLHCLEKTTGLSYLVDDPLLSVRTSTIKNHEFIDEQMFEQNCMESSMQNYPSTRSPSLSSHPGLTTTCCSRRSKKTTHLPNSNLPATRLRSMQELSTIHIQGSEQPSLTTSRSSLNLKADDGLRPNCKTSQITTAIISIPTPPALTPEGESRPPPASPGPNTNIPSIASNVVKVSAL

NC(=O)OC[C@@H](O)C[C@H](NC(=O)[C@H]1NCCC[C@H]1O)C(=O)N[C@@H](Cc1c[nH]cn1)C(=O)N[C@H](C(=O)O)[C@H](O)c1cnc(Cl)[nH]1 [GE81112A]
no critical inhibiting effect: Off-target inhibitory effects, enzyme and uptake assays [2]
>64 µg/mL: MIC (E. coli DSM 46345; DMEM) | MIC (E. coli DSM 46345; MHII) | MIC ([3]; DMEM) | MIC ([3]; MHII) | MIC (E. coli ATCC BAA-2471; MHII) | MIC ([4]; DMEM) | MIC ([4]; MHII) | MIC (E. cloacae ATCC BAA-2468; DMEM) | MIC (E. cloacae ATCC BAA-2468; MHII) | MIC (P. stuartii ATCC 29851; DMEM) | MIC (P. stuartii ATCC 29851; MHII) | MIC (E. cloacae CIP 105879; DMEM) | MIC (E. cloacae CIP 105879; MHII) | MIC (P. mirabilis DSM4479; MHII) | MIC (E. coli ATCC BAA-2469; DMEM) | MIC (E. coli ATCC BAA-2469; MHII) | MIC (C. freundii ATCC 8090; MHII) | MIC (E. coli MG1655; MHII)
1 µg/mL: MIC (E. coli MG1655; DMEM)
no degradation or formation of adducts: Stability in the presence of glutathione (GSH) [1]
32 µg/mL: MIC (C. freundii ATCC 8090; DMEM)
low: Oxidative metabolic lability ([5]; human liver microsomes) | Oxidative metabolic lability ([5]; mouse liver microsomes) | Oxidative metabolic lability ([5]; rat liver microsomes)
64 µg/mL: MIC (P. mirabilis DSM4479; DMEM)
did not inhibit: Ion channel inhibition (hERG) | Ion channel inhibition (hCaV3.1) | Ion channel inhibition (hNaV1.5) | Ion channel inhibition (hKV4.3) | Ion channel inhibition (hNaV1.2)
4 µg/mL: MIC (E. coli ATCC BAA-2471; DMEM)
